Reference: PMC5502112 (Brain research, 2017)
Positions count from the first letter of the chain named.

Experiments:
Test in all cases: inside-out patch clamp, HEK293
Assay type in all cases: biochemical
Kir4.1 [1] = biological target: T1, Kir4.1 (Rattus norvegicus, UniProt P49655)
T1 sequence (P49655 1-379): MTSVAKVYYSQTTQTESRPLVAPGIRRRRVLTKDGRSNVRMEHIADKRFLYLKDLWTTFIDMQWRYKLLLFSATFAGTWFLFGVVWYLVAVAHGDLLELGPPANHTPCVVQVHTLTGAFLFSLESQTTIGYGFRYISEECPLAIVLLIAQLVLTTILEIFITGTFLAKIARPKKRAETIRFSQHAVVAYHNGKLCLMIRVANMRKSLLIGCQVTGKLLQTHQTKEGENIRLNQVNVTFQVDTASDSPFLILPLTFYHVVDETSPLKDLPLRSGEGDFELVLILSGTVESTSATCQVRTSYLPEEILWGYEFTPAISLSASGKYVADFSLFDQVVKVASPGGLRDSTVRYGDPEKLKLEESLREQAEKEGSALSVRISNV

Kir4.1 [2] = biological target: T2, Kir4.1 (Rattus norvegicus, UniProt P49655, T128A); settings: read-out: % inhibition at 10 μM
T2 sequence (P49655 1-379 T128A): T1 sequence (P49655 1-379) with T128A

Kir4.1 [3] = biological target: T3, Kir4.1 (Rattus norvegicus, UniProt P49655, T127A); settings: read-out: % inhibition at 10 μM
T3 sequence (P49655 1-379 T127A): T1 sequence (P49655 1-379) with T127A

Kir4.1 [4] = biological target: T1, Kir4.1; settings: read-out: % inhibition at 10 μM
Kir4.1 [5] = biological target: T4, Kir4.1 (Rattus norvegicus, UniProt P49655, E158N); settings: read-out: % inhibition at 10 μM
T4 sequence (P49655 1-379 E158N): T1 sequence (P49655 1-379) with E158N

IC50 (Kir4.1 [1]): 1.8 ± 0.3 µM
inhibition at 10 µM (Kir4.1 [2]): 66.1 ± 1.1%
inhibition at 10 µM (Kir4.1 [3]): 89.7 ± 1.1%
inhibition at 10 µM (Kir4.1 [4]): 88.3 ± 1.5%
inhibition at 10 µM (Kir4.1 [5]): 79.8 ± 2.2%
SMILES: CCN(CC)CCCC(C)Nc1c2ccc(Cl)cc2nc2ccc(OC)cc12 (centres unmarked) [quinacrine]
